Laboratory results taken from ChEMBL document CHEMBL1154180, “Pyrazole-based arylalkyne cathepsin S inhibitors. Part II: optimization of cellular potency” (Bioorg Med Chem Lett, 2009).

Assays:
[1] = target: T1, Cathepsin S (Homo sapiens, UniProt P25774); experiment: Inhibition of human recombinant cathepsin S expressed in baculovirus by FRET assay
[2] = target: T1, Cathepsin S; experiment: Inhibition of cathepsin S in human JY cells assessed as invariant chain li degradation by Western blotting; format: cell-based

T1 sequence (P25774 whole entry): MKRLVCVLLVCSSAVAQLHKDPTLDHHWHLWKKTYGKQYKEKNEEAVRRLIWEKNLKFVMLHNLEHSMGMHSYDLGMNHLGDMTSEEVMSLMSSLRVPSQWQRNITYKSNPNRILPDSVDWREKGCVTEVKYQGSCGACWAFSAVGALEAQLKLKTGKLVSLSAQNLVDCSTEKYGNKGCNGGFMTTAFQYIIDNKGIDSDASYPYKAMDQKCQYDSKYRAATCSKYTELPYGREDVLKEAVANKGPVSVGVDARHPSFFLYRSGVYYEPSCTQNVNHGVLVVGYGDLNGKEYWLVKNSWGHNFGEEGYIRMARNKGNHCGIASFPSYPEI

Row | SMILES | IC50 [1] [nM] | IC50 [2] [µM]
1 | CS(=O)(=O)N1CCc2c(c(-c3ccc(Cl)c(C#Cc4ccc(Cl)cc4)c3)nn2CC(O)CN2CCNCC2)C1 (centres undefined) | 380 | > 10
2 | CNCc1ccc(C#Cc2cc(-c3nn(CCCN4CCOCC4)c4c3CN(S(C)(=O)=O)CC4)ccc2Cl)cc1 | 1300 | > 10
3 | CC(C)(C)OC(=O)N1CCN(CC(O)Cn2nc(-c3ccc(Cl)c(C#Cc4ccc(Cl)cc4)c3)c3c2CCN(S(C)(=O)=O)C3)CC1 (centres undefined) | 150 | > 10
4 | CS(=O)(=O)N1CCc2c(c(-c3ccc(Cl)c(C#Cc4ccc(Cl)cc4)c3)nn2CC(O)CN2CCC(C(N)=O)CC2)C1 (centres undefined) |  | > 10
5 | COC(=O)C1CCN(CC(O)Cn2nc(-c3ccc(Cl)c(C#Cc4ccc(Cl)cc4)c3)c3c2CCN(S(C)(=O)=O)C3)CC1 (centres undefined) |  | > 10
6 | CS(=O)(=O)N1CCc2c(c(-c3ccc(Cl)c(C#Cc4ccc(CNS(=O)(=O)c5ccccc5)cc4)c3)nn2CCCN2CCOCC2)C1 | 160 | > 10
7 | CS(=O)(=O)N1CCc2c(c(-c3ccc(Cl)c(C#Cc4ccc(CNC(=O)c5ccccc5)cc4)c3)nn2CCCN2CCOCC2)C1 |  | > 10
8 | CN(Cc1ccccc1)Cc1ccc(C#Cc2cc(-c3nn(CCCN4CCOCC4)c4c3CN(S(C)(=O)=O)CC4)ccc2Cl)cc1 | 600 | > 10
9 | COC(=O)[C@@H](NCc1ccc(C#Cc2cc(-c3nn(CCCN4CCOCC4)c4c3CN(S(C)(=O)=O)CC4)ccc2Cl)cc1)c1ccccc1 |  | > 10
10 | CS(=O)(=O)N1CCc2c(c(-c3ccc(Cl)c(C#Cc4ccc(Cl)cc4)c3)nn2CC(O)CN2CCOCC2)C1 (centres undefined) | 140 | > 10
11 | CS(=O)(=O)N1CCc2c(c(-c3ccc(Cl)c(C#Cc4ccc(Cl)cc4)c3)nn2CC(O)CN2CCCCC2)C1 (centres undefined) |  | > 10
12 | COC(=O)[C@H](NCc1ccc(C#Cc2cc(-c3nn(CCCN4CCOCC4)c4c3CN(S(C)(=O)=O)CC4)ccc2Cl)cc1)c1ccccc1 | 100 | > 10
13 | CC(C)(C)OC(=O)N1CCC(C2CCN(C[C@H](O)Cn3nc(-c4ccc(Cl)c(C#Cc5ccc(Cl)cc5)c4)c4c3CCN(S(C)(=O)=O)C4)CC2)CC1 |  | > 10

More lines, in order of falling IC50 [2], values ahead:

Row | IC50 [1] [nM] | IC50 [2] [µM] | SMILES
14 | 490 | 10 | CS(=O)(=O)N1CCc2c(c(-c3ccc(Cl)c(C#Cc4ccc(CN)cc4)c3)nn2CCCN2CCOCC2)C1
15 |  | 10 | CC(=O)N1CCC(C2CCN(C[C@H](O)Cn3nc(-c4ccc(Cl)c(C#Cc5ccc(Cl)cc5)c4)c4c3CCN(S(C)(=O)=O)C4)CC2)CC1
16 |  | 5.7 | CS(=O)(=O)N1CCc2c(c(-c3ccc(Cl)c(C#Cc4ccc(CNCCc5ccccc5)cc4)c3)nn2CCCN2CCOCC2)C1
17 | 420 | 4.2 | CS(=O)(=O)N1CCc2c(c(-c3ccc(Cl)c(C#Cc4ccc(CNCc5ccccc5)cc4)c3)nn2CCCN2CCOCC2)C1
18 |  | 1.8 | CS(=O)(=O)N1CCc2c(c(-c3ccc(Cl)c(C#Cc4ccc(CNCc5ccc(Cl)c(Cl)c5)cc4)c3)nn2CCCN2CCOCC2)C1
19 |  | 1.7 | CS(=O)(=O)N1CCc2c(c(-c3ccc(Cl)c(C#Cc4ccc(CN[C@@H](CO)c5ccccc5)cc4)c3)nn2CCCN2CCOCC2)C1
20 | 140 | 1.5 | CS(=O)(=O)N1CCc2c(c(-c3ccc(Cl)c(C#Cc4ccc(CNCc5ccc(Cl)cc5)cc4)c3)nn2CCCN2CCOCC2)C1
21 |  | 1.1 | Cc1ccc(CNCc2ccc(C#Cc3cc(-c4nn(CCCN5CCOCC5)c5c4CN(S(C)(=O)=O)CC5)ccc3Cl)cc2)cc1
22 |  | 0.82 | COc1ccc(CNCc2ccc(C#Cc3cc(-c4nn(CCCN5CCOCC5)c5c4CN(S(C)(=O)=O)CC5)ccc3Cl)cc2)cc1
23 |  | 0.72 | CN1CCC(C2CCN(C[C@H](O)Cn3nc(-c4ccc(Cl)c(C#Cc5ccc(Cl)cc5)c4)c4c3CCN(S(C)(=O)=O)C4)CC2)CC1
24 |  | 0.2 | CS(=O)(=O)N1CCc2c(c(-c3ccc(Cl)c(C#Cc4ccc(Cl)cc4)c3)nn2C[C@@H](O)CN2CCC(C3CCNCC3)CC2)C1
